Results: US9321745B2, “Inhibition of neovascularization by inhibition of prostanoid IP receptors” (ALLERGAN, INC., priority 2013, dated 2016)
Blank lines part the entries; values can stand above or below the compound they belong to.

Experiments:
[1] = system: laser-induced choroidal neovascularization (CNV); test: Laser-induced model of choroidal neovascularization (CNV); format: in vivo
Protocol: A laser-induced model of CNV was employed, as known in the art, to determine whether blockade of IP receptors alone is sufficient to inhibit CNV. See e.g., Francois et al., 1975, Am. J. Ophthalmol. 79:206-210; Edelman & Castro, 2000, Exp. Eye Res. 71:523-533; Goody, R. J., et al., 2011, Exp. Eye. Research 92:464-472. Test rats were administered laser treatment after which vehicle (50% propylene glycol in H2O) or IP receptor antagonist Formula II was administered. The area of subsequently identified CNV was quantified by methods known in the art. […] Moreover, as depicted in FIG. 2C, the area of CNV was reduced on a per lesion basis.

IP receptor [2] = target: T1, IP receptor (Homo sapiens, UniProt P43119); test: Inhibition of 100 nM cicaprost-induced VEGF secretion in TNFα-stimulated human macrophages; format: cell-based; settings: TNFα-stimulated human macrophages from two individual donors, FIG. 1B
T1 construct: endogenous in cells; host or cells: TNFα-stimulated human macrophages from individual donors
T1 sequence (P43119 whole entry): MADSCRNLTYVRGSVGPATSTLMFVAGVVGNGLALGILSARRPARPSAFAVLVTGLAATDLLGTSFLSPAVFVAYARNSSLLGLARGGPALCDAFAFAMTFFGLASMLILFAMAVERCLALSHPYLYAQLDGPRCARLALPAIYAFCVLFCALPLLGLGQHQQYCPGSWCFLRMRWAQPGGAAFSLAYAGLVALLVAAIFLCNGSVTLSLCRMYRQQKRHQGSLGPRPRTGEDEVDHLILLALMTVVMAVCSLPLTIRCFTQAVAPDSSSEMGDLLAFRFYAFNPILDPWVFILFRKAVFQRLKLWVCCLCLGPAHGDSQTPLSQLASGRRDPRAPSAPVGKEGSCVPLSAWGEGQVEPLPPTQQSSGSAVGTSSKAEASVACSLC
Excerpt: (§1) A TNFα-stimulated human macrophage system was employed, as known in the art, to assess the effect of IP receptor agonist and IP receptor antagonist on induction of VEGF secretion.
In order to test whether a IP receptor antagonist can reverse the effect of cicaprost-induced VEGF secretion in TNFα-stimulated human macrophages, the IP receptor antagonist Formula I was employed.

IP receptor [3] = target: T1, IP receptor; test: Cicaprost-induced VEGF secretion in TNFα-stimulated human macrophages; format: cell-based; settings: FIG. 1A
Excerpt: as §1

SMILES: O=C(N[C@@H](Cc1ccc(F)cc1)C(=O)O)OCc1cc2cc(-c3cccc(F)c3)ccc2o1 [Formula II]
area of CNV per test subject (rat vs. rat) ([1]; after laser treatment, vs vehicle 50% propylene glycol in H2O, n=6, FIG. 2A): significantly reduced
area of CNV, comparison of each eye (eye vs. eye) ([1]; rat, after laser treatment, vs vehicle, n=12, FIG. 2B): reduced
area of CNV on a per lesion basis (lesion vs. lesion) ([1]; rat, after laser treatment, vs vehicle, n=38, FIG. 2C): reduced
inhibition of laser-induced choroidal neovascularization (CNV) ([1]; rat, FIG. 2 overall, vs vehicle 50% propylene glycol in H20): sufficient to inhibit laser-induced choroidal neovascularization

inhibition of cicaprost-induced VEGF secretion (IP receptor [2]): dose dependently inhibits
SMILES: CC(C)Oc1ccc(Cc2ccc(NC3=NCCN3)cc2)cc1 [Formula I]

induction of VEGF secretion (IP receptor [3]): dose dependently induces VEGF secretion
SMILES: CCC#CC[C@H](C)[C@H](O)C#C[C@@H]1[C@H]2C/C(=C/COCC(=O)O)C[C@H]2C[C@H]1O [cicaprost]
